Reference: patent publication US9796753B2, “N-substituted indenoisoquinolines and syntheses thereof” (Purdue Research Foundation, priority 2005, dated 2017)
Where two headings read alike, the source gives them in different places.

Experiments:
[1] = target: recombinant TDP1 (Homo sapiens, UniProt Q9NUW8); experiment: Gel-based assay measuring the inhibition of recombinant TDP1; format: biochemical; conditions: for IC50: Table 5, determined in duplicate
Method: A 5′-[^32P]-labeled single-stranded DNA oligonucleotide containing a 3′-phosphotyrosine (N14Y) was generated as described by Dexheimer et al. (J. Med. Chem. 2009, 52, 7122-7131). The DNA substrate was then incubated with 5 μM recombinant TDP1 in the absence or presence of inhibitor for 15 min at room temperature in a buffer containing 50 mM Tris HCl, pH 7.5, 80 mM KCl, 2 mM EDTA, 1 mM DTT, 40 μg/ml BSA and 0.01% Tween-20. Reactions were terminated by the addition of 1 volume of gel loading buffer [99.5% (v/v) formamide, 5 mM EDTA, 0.01% (w/v) xylene cyanol, and 0.01% (w/v) bromophenol blue]. Samples were subjected to a 16% denaturing PAGE and gels were exposed after drying to a PhosphorImager screen (GE Healthcare). Gel images were scanned using a Typhoon 8600 (GE Healthcare) and densitometric analyses were performed using the ImageQuant software (GE Healthcare).
The TDP1 inhibitory activities of the O-2-substituted indenoisoquinolines were measured by determining their abilities to inhibit the hydrolysis of the phosphodiester linkage between tyrosine and the 3′-end of a DNA oligonucleotide substrate and thus prevent the generation of an oligonucleotide with a free 3′-phosphate (N14P, Scheme 13). Therefore, the disappearance of the gel band for N14P indicates TDP1 inhibition.
Tyrosyl-DNA phosphodiesterase 1 (TDP1) is a DNA repair enzyme that repairs cytotoxic DNA damage induced by Top1 inhibitors.

[2] = target: T1, Human recombinant Top1 (Homo sapiens, UniProt P11387); experiment: Topoisomerase 1-mediated DNA cleavage reactions (B), 117-bp DNA oligonucleotide; format: biochemical; set-up: key to Top1 inhibitory activity (level): 0, no detectable activity; +, weak activity; ++, similar activity to compound 33; +++, greater activity than 33; ++++, equipotent to 32; Ambiguous scores (e.g., between two values) are designated with parentheses (e.g., ++(+) would be between ++ and +++); key to Top1 (compound-induced DNA cleavage due to Top1 inhibition): 0, no detectable activity; +, weak activity; ++, similar activity to compound 5; +++, greater activity than 34; ++++ , equipotent to 32; The (+) ranking indicates the activity lies between two given values; conditions: Table 5; for Top1 inhibitory activity (level): relative to compounds 32 and 33; for Top1 (compound-induced DNA cleavage due to Top1 inhibition): semiquantitative scale relative to 1 μM camptothecin (32) or MJ-III-65 (34)
T1 construct: made in house
T1 sequence (P11387 1-765): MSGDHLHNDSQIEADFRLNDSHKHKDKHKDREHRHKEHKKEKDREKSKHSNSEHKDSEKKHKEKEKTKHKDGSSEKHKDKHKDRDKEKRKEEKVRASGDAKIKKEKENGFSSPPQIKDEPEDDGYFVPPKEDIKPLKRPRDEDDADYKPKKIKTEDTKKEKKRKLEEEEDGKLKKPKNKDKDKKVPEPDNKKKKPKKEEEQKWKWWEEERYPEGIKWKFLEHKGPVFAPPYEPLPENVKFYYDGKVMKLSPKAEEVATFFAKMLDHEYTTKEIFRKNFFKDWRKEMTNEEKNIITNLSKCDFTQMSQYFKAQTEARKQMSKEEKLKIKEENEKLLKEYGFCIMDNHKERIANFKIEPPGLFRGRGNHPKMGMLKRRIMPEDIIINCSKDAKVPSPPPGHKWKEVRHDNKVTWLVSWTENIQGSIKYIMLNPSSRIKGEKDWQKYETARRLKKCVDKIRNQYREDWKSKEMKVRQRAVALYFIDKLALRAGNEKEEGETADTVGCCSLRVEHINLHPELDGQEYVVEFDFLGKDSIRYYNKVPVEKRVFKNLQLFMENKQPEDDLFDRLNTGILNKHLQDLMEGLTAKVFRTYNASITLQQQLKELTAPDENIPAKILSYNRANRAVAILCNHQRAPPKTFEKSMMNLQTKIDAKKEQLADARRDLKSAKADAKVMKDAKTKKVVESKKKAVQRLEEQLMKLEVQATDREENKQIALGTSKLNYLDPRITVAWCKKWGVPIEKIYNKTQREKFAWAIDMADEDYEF
Method: Human recombinant Top1 was purified from baculovirus as described in Bailly, C. Curr. Med. Chem. 2000, 7, 39-58. DNA cleavage reactions were prepared as previously reported with the exception of the DNA substrate in Saltz, et al. Oncologist 1997, 2, 402-409.
Approximately 2 nM radiolabeled DNA substrate was incubated with recombinant Top1 in 20 μL of reaction buffer [10 mM Tris-HCl (pH 7.5), 50 mM KCl, 5 mM MgCl2, 0.1 mM EDTA, and 15 μg/mL BSA] at 25° C. for 20 min in the presence of various concentrations of compounds. […] Aliquots of each reaction mixture were subjected to 20% denaturing PAGE. Gels were dried and visualized using a phosphoimager and ImageQuant software (Molecular Dynamics).
All of the new indenoisoquinoline derivatives with C-2 side chains were tested in Top1-mediated DNA cleavage assays. For this purpose, a ^32P 3′-end labeled 117-bp DNA fragment was incubated with Top1 and four 10-fold dilutions starting from 100 μM of a tested compound. The DNA fragments were separated on 20% PAGE denaturing gels. The Top1 inhibitory activities were assigned on the basis of the visual inspection of the number and intensities of the gel bands corresponding to Top1-mediated DNA cleavage fragments. […] Ambiguous scores (e.g., between two values) are designated with parentheses (e.g., ++(+) would be between ++ and +++).

[3] = tested on: all human cancer cell lines successfully tested; experiment: NCI screen mean graph midpoint (MGM) for growth inhibition; format: cell-based; conditions: Table 6; for GI50's against various cell lines (in words): NCI60 cell lines; for MGM (mean GI50 across cell lines): all human cancer cell lines successfully tested, range 10^−8 to 10^−4 molar, with standard error
Procedure, shortened: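 NCI60 panel cells exposed to compound at 100, 10, 1, 0.1 and 0.01 μM for 48 h, then sulforhodamine B staining. Percentage growth versus control plotted against log concentration; MGM is the midpoint across all lines tested.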

[4] = tested on: melanoma UACC-62; experiment: COMPARE screening (NCI human cancer cell line screen), cytotoxicity GI50; format: cell-based; conditions: Homo sapiens, UACC-62, 48 h, read-out: Cytotoxicity (GI50) melanoma UACC-62
Procedure, shortened: (§1)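 Sulforhodamine B read-out after 48 h exposure over five log concentrations (0.01-100 μM) in the NCI 60-cell-line panel. GI50 derived from percentage growth, as OD ratio to control, versus log10 concentration.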

[5] = tested on: CNS SF-539; experiment: as above; format: cell-based; conditions: Homo sapiens, CNSSF-539, 48 h, read-out: Cytotoxicity (GI50) CNS SF-539
Procedure, shortened: as §1

[6] = tested on: ovarian OVCAR-3; experiment: as above; format: cell-based; conditions: Homo sapiens, OVCAR-3, 48 h, read-out: Cytotoxicity (GI50) Ovarian OVCAR-3
Procedure, shortened: as §1

[7] = tested on: lung HOP-62; experiment: as above; format: cell-based; conditions: Homo sapiens, HOP-62, 48 h, read-out: Cytotoxicity (GI50) lung HOP-62
Procedure, shortened: as §1

[8] = tested on: colon HCT-116; experiment: as above; format: cell-based; conditions: Homo sapiens, HCT-116, 48 h, read-out: Cytotoxicity (GI50) Colon HCT-116
Procedure, shortened: as §1

[9] = tested on: prostate DU-145; experiment: as above; format: cell-based; conditions: Homo sapiens, DU-145, 48 h, read-out: Cytotoxicity (GI50) prostate DU-145
Procedure, shortened: as §1

[10] = tested on: renal SN12C; experiment: as above; format: cell-based; conditions: Homo sapiens, SN12C, 48 h, read-out: Cytotoxicity (GI50) renal SN12C
Procedure, shortened: as §1

[11] = tested on: breast MCF-7; experiment: NCI60 antiproliferative activity, cytotoxicity GI50; format: cell-based, human; conditions: Homo sapiens, MCF7, 48 h, read-out: Cytotoxicity (GI50) breast MCF-7
Method: Selected compounds were tested for antiproliferative activity in the National Cancer Institute's developmental therapeutics assay 60 cell line screen (NCI60). The cells were incubated with the tested compounds at 100, 10, 1, 0.1, and 0.01 μM concentrations for 48 h before treatment with sulforhodamine B dye. Optical densities were recorded, and their ratios relative to that of the control were plotted as percentage growth against the log 10 of the tested compound concentrations.

[12] = read-out: TDP1 (IC50, semiquantitative scale)
[13] = read-out: TDP1 inhibitory activity (potency score)

recombinant TDP1, sequence (Q9NUW8 whole entry): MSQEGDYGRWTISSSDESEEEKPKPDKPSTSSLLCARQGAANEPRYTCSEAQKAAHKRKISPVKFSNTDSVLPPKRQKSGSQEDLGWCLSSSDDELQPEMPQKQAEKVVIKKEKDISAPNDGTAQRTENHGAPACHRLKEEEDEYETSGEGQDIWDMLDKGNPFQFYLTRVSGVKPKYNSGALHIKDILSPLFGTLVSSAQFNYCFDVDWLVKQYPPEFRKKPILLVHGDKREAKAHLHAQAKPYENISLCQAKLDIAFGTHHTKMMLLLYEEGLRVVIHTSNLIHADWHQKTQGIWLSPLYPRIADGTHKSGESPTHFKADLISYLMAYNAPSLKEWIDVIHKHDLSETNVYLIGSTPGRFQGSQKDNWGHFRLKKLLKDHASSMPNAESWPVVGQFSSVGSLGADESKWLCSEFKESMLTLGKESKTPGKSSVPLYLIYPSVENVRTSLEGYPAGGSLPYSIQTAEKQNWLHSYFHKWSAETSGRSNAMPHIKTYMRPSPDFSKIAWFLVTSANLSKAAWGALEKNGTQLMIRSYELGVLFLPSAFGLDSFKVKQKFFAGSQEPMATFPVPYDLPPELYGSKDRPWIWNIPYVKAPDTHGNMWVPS

Structure (SMILES)	IC50 [1, 12] [µM]	Top1 inhibitory activity (level) [2]	Top1 (compound-induced DNA cleavage due to Top1 inhibition) [2]	IC50 [1, 13] [µM]	melting point	TDP1 inhibitory activity (in words) [1]	GI50's against various cell lines (in words) [3]	MGM (mean GI50 across cell lines) [3] [nM]	GI50 [4] [nM]	GI50 [5] [nM]	GI50 [6] [nM]	GI50 [7] [nM]	GI50 [8] [nM]	GI50 [9] [nM]	GI50 [10] [nM]	GI50 [11] [nM]
COc1cc2c(=O)n(CCCN3CCOCC3)c3c(c2cc1OCCCN)C(=O)c1cc2c(cc1-3)OCO2 [Compound 22, 2-(3-Aminopropoxy)-3-methoxy-6-(3-morpholinopropyl)-5H-[1,3]dioxolo [4′,5′:5,6]indeno[1,2-c]isoquinoline-5,12(6H)-dione]	37 to 111	–	–	–	> 350 °C	–	submicromolar	500 ± 92	300	200	400	300	200	300	300	200
COc1cc2c(=O)n(CCCN3CCOCC3)c3c(c2cc1OCCCN1CCOCC1)C(=O)c1cc2c(cc1-3)OCO2 [Compound 25, 3-Methoxy-2-(3-morpholinopropoxy)-6-(3-morpholinopropyl)-5H-[1,3]dioxolo [4′,5′:5,6]indeno[1,2-c]isoquinoline-5,12(6H)-dione]	> 111	+++	+++	–	–	no TDP1 inhibitory activity was observed	submicromolar	200 ± 28	200	100	700	30	100	20	100	20
C=CCOc1cc2c3c(n(CCCN4CCOCC4)c(=O)c2cc1OC)-c1cc2c(cc1C3=O)OCO2 [Compound 20, 2-(Allyloxy)-3-methoxy-6-(3-morpholinopropyl)-5H-[1,3]dioxolo[4′,5′:5,6]indeno [1,2-c]isoquinoline-5,12(6H)-dione]	> 111	+ or ++	+	–	199 to 200 °C (dec.)	no detectable TDP1 inhibitory activity	submicromolar	100 ± 35	< 10	10	300	< 10	10	< 10	< 10	< 10

Continued, in another order:

IC50 [1, 12] [µM]	Top1 inhibitory activity (level) [2]	Top1 (compound-induced DNA cleavage due to Top1 inhibition) [2]	IC50 [1, 13] [µM]	melting point	TDP1 inhibitory activity (in words) [1]	Structure (SMILES)	GI50's against various cell lines (in words) [3]	MGM (mean GI50 across cell lines) [3] [nM]	GI50 [4] [nM]	GI50 [5] [nM]	GI50 [6] [nM]	GI50 [7] [nM]	GI50 [8] [nM]	GI50 [9] [nM]	GI50 [10] [nM]	GI50 [11] [nM]
> 111	+ or ++	++	–	–	–	COC(=O)COc1cc2c3c(n(CCCN4CCOCC4)c(=O)c2cc1OC)-c1cc2c(cc1C3=O)OCO2 [Compound 29, Methyl 2-((3-Methoxy-6-(3-morpholinopropyl)-5,12-dioxo-6,12-dihydro-5H-[1,3]dioxolo[4′,5′:5,6]indeno[1,2-c]isoquinolin-2-yl)oxy)acetate]	low micromolar	3100 ± 1200	1000	100	5800	100	1100	900	800	400
1 to 37	++	++	1 to 37	–	–	COc1cc2c(=O)n(CCCN3CCOCC3)c3c(c2cc1OCCCN1CCCC1)C(=O)c1cc2c(cc1-3)OCO2 [Compound 28, 3-Methoxy-6-(3-morpholinopropyl)-2-(3-(pyrrolidin-1-yl)propoxy)-5H-[1,3]dioxolo[4′,5′:5,6]indeno[1,2-c]isoquinoline-5,12(6H)-dione]	–	600 ± 370	300	200	1200	200	200	40	200	100
12 to 37	+++	+++	12 to 37	–	–	COc1cc2c(=O)n(CCCN3CCOCC3)c3c(c2cc1OCCCN1CCCCC1)C(=O)c1cc2c(cc1-3)OCO2 [Compound 27, 3-Methoxy-6-(3-morpholinopropyl)-2-(3-(piperidin-1-yl)propoxy)-5H-[1,3]dioxolo [4′,5′:5,6]indeno[1,2-c]isoquinoline-5,12(6H)-dione]	low micromolar	1600 ± 230	9600	30	5400	300	1100	200	400	40
